Test results from publication PMC11484510, “Antibacterial activity of structurally diverse natural prenylated isobavachalcone derivatives” (RSC Advances, 2024).
Where a name gives a salt, the structure may show the parent alone. Read-outs that look alike come from different tables or passages of the source.

How the values were obtained:
S. aureus = test: Combinational study (checkerboard microdilution) with standard drugs; assay type: cell-based
Experimental: The Fractional Inhibitory Concentration Index (FICI) was calculated for each test compound and reference drug to find the combinational effect.
In a 96-well flat bottom plate, the reference drug with 4× MIC was serially diluted horizontally. The test compounds with 4× MIC were serially diluted two-fold outside the plate in 1.5 mL Eppendorf's using Mueller Hinton Broth (MHB). These two serially diluted compounds were combined to create drug-compound combinations in the plate. The reference drug (horizontally) and tested compounds (vertically) alone were serially diluted for MIC determination. 100 μL of the standardized bacterial inoculum with a turbidity equivalent to a 0.5 McFarland standard were diluted 1 : 100 in Mueller Hinton Broth and inoculated in the plates. The plates were incubated for 24 hours at 37 °C. After incubation, 10 μL of freshly prepared Alamar blue (Himedia) was added to each well of the plate, and the plates were further incubated at 37 °C for 30 minutes. After incubation, the plates were visually observed. […] The FICI was calculated using the formula FICI = FIC of compound + FIC of drug. The calculation followed is FICI (CA/(MICA)) + (CB/(MICB)), where CA is the MIC of the compound in combination, CB is the MIC of the drug in combination, and MICA and MICB are the MIC values of individual compounds and drugs, respectively. The range selection followed the interpretation criteria. The FICI range of 0.5 to 4 indicates indifference, ≤ or =0.5 indicates synergy and >4 indicates antagonism.[57]

MRSA ATCC 15187 = test: MIC, broth microdilution (CLSI), Alamar blue; assay type: cell-based, Methicillin-resistant S. aureus; conditions: MRSA ATCC 15187, 24 hours at 37 °C, read-out: Minimum inhibitory concentration (MIC) MRSA
Description: (§1) The bacterial strains S. aureus ATCC 29213, MRSA ATCC 15187, E. coli ATCC 25922, and P. aeruginosa ATCC 27853 were obtained from ATCC (American Type Culture Collection). Cation-adjusted Mueller–Hinton broth (MHB; Becton–Dickinson, Cockeysville, MD) was used to determine the minimum inhibitory concentration (MIC). Mueller–Hinton agar (MHA; Becton–Dickinson) was used for minimum bactericidal concentration (MBC) studies. Alamar blue (Himedia) was used to detect the MIC value.
(§2) The antibacterial activity of the compounds against S. aureus ATCC 29213, MRSA ATCC 15187, E. coli ATCC 25922, and P. aeruginosa ATCC 27853 was determined through a broth microdilution method according to the guidelines of the Clinical and Laboratory Standards Institute (CLSI).[50] […] Growth control and media control were employed along with 2% DMSO as vehicle control.
(§3) In a 96-well flat bottom plate, the test compounds were two-fold serially diluted in Mueller Hinton Broth (MHB). The final concentrations of the compounds ranged from 100 to 0.08 μM. 100 μL of standardized bacterial inoculum with turbidity equivalent to 0.5 McFarland standard (1.5 × 10^8 CFU mL^−1) was diluted 1 : 100 (1.5 × 10^6 CFU mL^−1) in Mueller Hinton Broth and inoculated in the plates.[51] The plates were incubated for 24 hours at 37 °C. After incubation, 10 μL of freshly prepared Alamar blue (Himedia) was added to each well of the plate, and plates were further incubated at 37 °C for 30 minutes. After incubation, the fluorescence was measured at excitation/emission of 540–570/580–610 nm. The percentage inhibition and viability were calculated for the controls, and the Gompertz curve was utilized to estimate the minimum inhibitory concentration.

P. aeruginosa ATCC 27853 = test: MIC, broth microdilution (CLSI), Alamar blue; assay type: cell-based; conditions: P. aeruginosa ATCC 27853, 24 hours at 37 °C, read-out: Minimum inhibitory concentration (MIC) P. aeruginosa
Description: as §1, §2, §3

S. aureus ATCC 29213 = test: MIC, broth microdilution (CLSI), Alamar blue; assay type: cell-based; conditions: S. aureus ATCC 29213, 24 hours at 37 °C, read-out: Minimum inhibitory concentration (MIC) S. aureus
Description: as §1, §2, §3

E. coli ATCC 25922 = test: MIC, broth microdilution (CLSI), Alamar blue; assay type: cell-based; conditions: E. coli ATCC 25922, 24 hours at 37 °C, read-out: Minimum inhibitory concentration (MIC) E. coli
Description: as §1, §2, §3

[1] = Pseudomonas aeruginosa, ATCC27853, 24 h
[2] = Staphylococcus aureus, ATCC29213

Row | MIC combination (drug) (S. aureus; MIC of ciprofloxacin in combination with IBC, S. aureus) [µM] | MIC combination (drug) (S. aureus; MIC of ciprofloxacin in combination with IBC-2, S. aureus) [µM] | MIC combination (drug) (S. aureus; MIC of ciprofloxacin in combination with IBC-3, S. aureus) [µM] | MIC (MRSA ATCC 15187) [µM] | MIC (MRSA ATCC 15187; Staphylococcus aureus) [µM] | MIC (P. aeruginosa ATCC 27853) [µM] | MIC (P. aeruginosa ATCC 27853; [1]) [µM] | MIC (S. aureus ATCC 29213) [µM] | MIC (S. aureus ATCC 29213; [2]) [µM] | MIC (E. coli ATCC 25922) [µM] | MIC (E. coli ATCC 25922; Escherichia coli, ATCC25922) [µM] | SMILES
1 | 0.156 | 0.3125 | 0.3125 |  |  |  |  |  |  |  |  | O=C(O)c1cn(C2CC2)c2cc(N3CCNCC3)c(F)cc2c1=O [Ciprofloxacin, ciprofloxacin hydrochloride monohydrate, reference compound]
2 |  |  |  | >100 | > 100 | >100 | > 100 | >100 | > 100 | >100 | > 100 | COc1ccc(/C=C/C(=O)c2ccc(OC)c(CC=C(C)C)c2OC)cc1 [IBC-4, (E)-1-(2,4-dimethoxy-3-(3-methylbut-2-en-1-yl)phenyl)-3-(4-methoxyphenyl)prop-2-en-1-one]
3 |  |  |  | >100 | > 100 | >100 | > 100 | >100 | > 100 | >100 | > 100 | CC(C)=CCc1c(OCC(=O)N2CCOCC2)ccc(C(=O)/C=C/c2ccc(OCC(=O)N3CCOCC3)cc2)c1OCC(=O)N1CCOCC1 [IBC-5, (E)-2,2′-((2-(3-methylbut-2-en-1-yl)-4-(3-(4-(2-morpholino-2-oxoethoxy)phenyl)acryloyl)-1,3-phenylene)bis(oxy)) bis (1-morpholinoethan-1-one)]
4 |  |  |  | >100 | > 100 | >100 | > 100 | >100 | > 100 | >100 | > 100 | CC(C)=CCc1c(O)ccc(C(=O)/C=C/c2ccc(OCC(=O)Nc3ccc(Cl)cn3)cc2)c1O [IBC-6, (E)-N-(5-chloropyridin-2-yl)-2-(4-(3-(2,4-dihydroxy-3-(3-methylbut-2-en-1-yl)phenyl)-3-oxoprop-1-en-1-yl)phenoxy) acetamide]
5 |  |  |  | >100 | > 100 | >100 | > 100 | >100 | > 100 | >100 | > 100 | CC(C)=CCc1c(O)ccc(C(=O)/C=C/c2ccc(OCC(=O)Nc3c(C)n(C)n(-c4ccccc4)c3=O)cc2)c1O [IBC-7, (E)-2-(4-(3-(2,4-dihydroxy-3-(3-methylbut-2-en-1-yl)phenyl)-3-oxoprop-1-en-1-yl)phenoxy)-N-(1,5-dimethyl-3-oxo-2-phenyl-2,3-dihydro-1H-pyrazol-4-yl) acetamide]
6 |  |  |  | >100 | > 100 | >100 | > 100 | >100 | > 100 | >100 | > 100 | CC(C)=CCc1c(OCC(=O)N2CCCC2)ccc(C(=O)/C=C/c2ccc(OCC(=O)N3CCCC3)cc2)c1O [IBC-8, (E)-1-(2-hydroxy-3-(3-methylbut-2-en-1-yl)-4-(2-oxo-2-(pyrrolidin-1-yl)ethoxy)phenyl)-3-(4-(2-oxo-2-(pyrrolidin-1-yl)ethoxy)phenyl) prop-2-en-1-one]
7 |  |  |  | >100 | > 100 | >100 | > 100 | >100 | > 100 | >100 | > 100 | CC(C)=CCc1c(O)ccc(C(=O)/C=C/c2ccc(OCC(=O)Nc3cc(C)[nH]n3)cc2)c1O [IBC-9, (E)-2-(4-(3-(2,4-dihydroxy-3-(3-methylbut-2-en-1-yl)phenyl)-3-oxoprop-1-en-1-yl)phenoxy)-N-(5-methyl-1H-pyrazol-3-yl)acetamide]
8 |  |  |  | >100 | > 100 | >100 | > 100 | >100 | > 100 | >100 | > 100 | CC(C)=CCc1c(O)ccc(C(=O)/C=C/c2ccc(OCC(=O)N3CCSCC3)cc2)c1O [IBC-10, (E)-1-(2,4-dihydroxy-3-(3-methylbut-2-en-1-yl)phenyl)-3-(4-(2-oxo-2-thiomorpholinoethoxy)phenyl)-prop-2-en-1-one]
9 |  |  |  |  |  |  | 2.8 |  |  |  |  | NC[C@H]1O[C@H](O[C@H]2[C@H](O)[C@@H](O[C@H]3O[C@H](CO)[C@@H](O)[C@H](N)[C@H]3O)[C@H](N)C[C@@H]2N)[C@H](O)[C@@H](O)[C@@H]1O [Kanamycin, kanamycin sulfate, reference compound]
